Like-named read-outs stand apart in the source and are kept apart here.

One data set deals with HepG2 cells. Put plainly: In vitro cytotoxicity, MTT cell viability assay in HepG2 cells. The format is cell-based. The following applies: human, 7 days. The method in brief:
(§1)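 Viability measured by MTT conversion, absorbance at 492 nm, as percent of vehicle-treated wells. Compounds spanned 30 μM to 1.0 nM in half-log steps over a 7-day exposure of parental HepG2 cells; CC50 derived by 4-parameter curve fit.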
Background: Tetrazolium assays rely on reduction of a dye to a coloured formazan, in cell work by metabolically active cells.

For data set [1], the system named is HBV replication in HepAD38 cells. Put plainly: Anti-HBV activity in HepAD38 cells, extracellular HBV DNA by QPCR. It is filed as cell-based, HBV (genotype D, serotype ayw). The method in brief:
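Seven-day compound exposure (30 μM down to 10 nM, half-log steps) after tetracycline withdrawal induced HBV replication in HepAD38 cells. Extracellular viral DNA measured by QPCR (copies/mL via standard curve), normalised to DMSO wells; EC50 from 4-parameter non-linear regression.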

The next data set deals with HBV. The following applies: Phase 1b clinical trial, 600 mg bid dosing for 29 days; cited from earlier work.
The nature of data set [2]: In vitro cytotoxicity, MTT cell viability assay in HepG2 cells. The format is cell-based. The following applies: human, Cytotoxicity CC50. The method in brief:
as §1

The mark [3] stands for this setting: Hepatitis B virus, HePAD38, 168 h, read-out: Anti-HBV EC50, HepAD38 cells, extracellular HBV DNA by QPCR, 7 days of incubation.
[4] abbreviates: read-out: Anti-HBV EC50, HepAD38 cells, extracellular HBV DNA by QPCR, 7 days of incubation.

Usually CC50 stands for the concentration at which the toxic effect on the cells reaches its halfway point. A word on the EC50: it is the midpoint of the concentration-response curve. With `Cc1cc(NC(=O)c2ccc(F)c(C(F)(F)C(=O)N3C4CCC3CC(O)(CO)C4)c2)ccc1F` (single isomer, unassigned; isomer 1) [Example 274], in the data set with HepG2 cells, the half-maximal cytotoxic concentration (CC50) is < 5 µM. Further, the half-maximal effective concentration (EC50) in data set [1] (setting [3]) is < 5 µM.

For `O=C(Nc1cc(F)c(F)c(F)c1)c1ccc(F)c(S(=O)(=O)N2CCC(O)CC2)c1` [NVR 3-778], in the data set with HBV, the “reduction in HBV DNA” value is on record as −1.7 log 10.

For `N#Cc1cc(NC(=O)c2ccc(F)c(C(F)(F)C(=O)N3[C@@H]4CC[C@H]3C[C@@H](O)C4)c2)ccc1F` [Example 178, N-(3-cyano-4-fluorophenyl)-3-(1,1-difluoro-2-((1R,3r,5S)-3-hydroxy-8-azabicyclo[3.2.1]octan-8-yl)-2-oxoethyl)-4-fluorobenzamide], the CC50 with HepG2 cells is > 30 µM. The EC50 in data set [1] (setting [3]) was < 5 µM.

Take `Cc1cc(NC(=O)c2ccc(F)c(C(F)(F)C(=O)N3C4CCC3CC(O)(CO)C4)c2)ccc1F` (single isomer, unassigned; isomer 2) [Example 275]: the CC50 with HepG2 cells was > 30 µM. Moreover, the EC50 in data set [1] (setting [4]) is < 5 µM.

Molecule `N#Cc1cc(NC(=O)c2ccc(F)c(C(F)(F)C(=O)N3[C@@H]4CC[C@H]3C[C@@H](O)C4)c2)ccc1F` [Example 192, N-(3-cyano-4-fluorophenyl)-3-(1,1-difluoro-2-((1R,3r,5S)-3-hydroxy-8-azabicyclo[3.2.1]octan-8-yl)-2-oxoethyl)-4-fluorobenzamide] came in with a CC50 in the data set with HepG2 cells of 5 to 30 µM. The EC50 in data set [1] (setting [4]) was < 5 µM.

`O=C(Nc1ccc(F)c(F)c1)c1ccc(F)c(C(F)(F)C(=O)NC2CCC(O)CC2)c1` (stereo not shown) [Example 27, 3-(1,1-difluoro-2-(((1s,4s)-4-hydroxycyclohexyl)amino)-2-oxoethyl)-N-(3,4-difluorophenyl)-4-fluorobenzamide] displayed a CC50 with HepG2 cells of 5 to 30 µM. Further, the concentration for a half-maximal effect (EC50) in data set [1] (setting [4]) is < 5 µM.

On to `N#Cc1cc(NC(=O)c2ccc(F)c(C(F)(F)C(=O)N3CCC(O)C(F)(F)C3)c2)ccc1F` (stereo not shown) [Example 191, N-(3-cyano-4-fluorophenyl)-3-(2-(3,3-difluoro-4-hydroxypiperidin-1-yl)-1,1-difluoro-2-oxoethyl)-4-fluorobenzamide], for which the CC50 in the data set on HepG2 cells was 5 to 30 µM. In data set [1] (setting [4]), the EC50 is < 5 µM.

As to `Cc1cc(NC(=O)c2c(C)c(C(O)(C(=O)NC(C)(C)C)C(F)(F)F)c(C)n2C)ccc1F` (stereo not shown) [Example 155, 4-(3-(tert-butylamino)-1,1,1-trifluoro-2-hydroxy-3-oxopropan-2-yl)-N-(4-fluoro-3-methylphenyl)-1,3,5-trimethyl-1H-pyrrole-2-carboxamide], the CC50 with HepG2 cells was 5 to 30 µM. The EC50 in data set [1] (setting [4]) was < 5 µM.

`Cc1cc(NC(=O)c2csc(C(F)(F)C(=O)N3CCC(O)CC3)n2)ccc1F` [Example 30, 2-(1,1-difluoro-2-(4-hydroxypiperidin-1-yl)-2-oxoethyl)-N-(4-fluoro-3-methylphenyl)thiazole-4-carboxamide] came in with a CC50 at 7 days in data set [2] of 5 to 30 µM. Moreover, in data set [1] (setting [3]), the EC50 was in the range of 5 to 30 µM.

Molecule `Cc1cc(NC(=O)c2ccc(F)c(C(F)(F)C(=O)N3[C@H](C)CNC[C@@H]3C)c2)ccc1F` [Example 214, 3-(2-((2S,6R)-2,6-dimethylpiperazin-1-yl)-1,1-difluoro-2-oxoethyl)-4-fluoro-N-(4-fluoro-3-methylphenyl)benzamide] registered a CC50 at 7 days in data set [2] of 5 to 30 µM. In data set [1] (setting [3]), the EC50 was < 5 µM.

(Values after patent US11247965B2 (VenatoRx Pharmaceuticals, Inc., priority 2017, dated 2022).)
